Laboratory results as given in the RepoRT retention time repository (doi:10.1016/j.aca.2011.12.065).
Where a name gives a salt, the structure may show the parent alone.

How the values were obtained:
[1] = RP, Waters ACQUITY UPLC BEH C18, 100 × 2.1 mm, 1.7 µm; A: water + 0.1% formic acid, pH 3; B: 80% acetonitrile + 20% acetone + 0.1% formic acid, pH 3; gradient (min/%B) 0/0 6/100; conditions: stereoisomer not certain
[2] = RP, Waters ACQUITY UPLC HSS T3, 100 × 2.1 mm, 1.8 µm; A: water + 0.1% formic acid, pH 3; B: 30% methanol + 70% acetonitrile + 0.1% formic acid, pH 3; gradient (min/%B) 0.0/5 1.0/8 2.0/15 3.0/40 4.0/70 4.5/100 5.0/100 6.4/100 6.6/5.0 6.8/5.0 7.0/5.0; conditions: stereoisomer not certain

CC(CCC(=O)NCCS(=O)(=O)O)C1CCC2C3C(O)CC4CC(O)CCC4(C)C3CC(O)C12C (centres undefined) [Taurocholic acid]
LC retention time [1]: 2.85 min | LC retention time [2]: 4.26 min

CC(O)C(N)C(=O)O (centres undefined) [Threonine]
LC retention time [1]: 0.574 min | LC retention time [2]: 0.475 min

O=c1cc[nH]c(=O)[nH]1 [Uracil]
LC retention time [1]: 0.752 min | LC retention time [2]: 0.628 min

O=c1[nH]c(=O)c2[nH]c(=O)[nH]c2[nH]1 [Uric acid]
LC retention time [1]: 0.752 min | LC retention time [2]: 0.618 min

COc1cc(C(=O)O)ccc1O [Vanillic acid]
LC retention time [1]: 1.78 min | LC retention time [2]: 3.17 min

CNC(C)(C)C(=O)O [alfa-(methylamino)isobutyric acid]
LC retention time [1]: 0.712 min | LC retention time [2]: 0.531 min

OCC1OC(OC2C(CO)OC(O)C(O)C2O)C(O)C(O)C1O (centres undefined) [alfa-lactose monohydrate]
LC retention time [1]: 0.6 min | LC retention time [2]: 0.476 min

CC(C)c1cc2c(c(O)c1O)C13CCCC(C)(C)C1CC2OC3=O (centres undefined) [carnosol]
LC retention time [1]: 4 min | LC retention time [2]: 4.51 min

NC(CCCCNCC(=O)O)C(=O)O (centres undefined) [cml]
LC retention time [1]: 0.676 min | LC retention time [2]: 0.527 min

COC1=C(OC)C(=O)C(CC=C(C)C)=C(C)C1=O [coenzyme q1]
LC retention time [1]: 3.92 min | LC retention time [2]: 4.47 min

Nc1ccn(C2OC(CO)C(O)C2O)c(=O)n1 (centres undefined) [cytidine]
LC retention time [1]: 0.749 min | LC retention time [2]: 0.533 min

CC(C)(CO)C(O)C(=O)NCCC(=O)NCCSSCCNC(=O)CCNC(=O)C(O)C(C)(C)CO (stereo not drawn) [d-pantethine]
LC retention time [1]: 1.87 min | LC retention time [2]: 3.44 min

CC(CCC(=O)O)C1CCC2C3C(=O)CC4CC(=O)CCC4(C)C3CC(=O)C12C (centres undefined) [dehydrocholic acid]
LC retention time [1]: 2.98 min | LC retention time [2]: 4.05 min

O=C1CCCCN1 [delta-valerolactam]
LC retention time [1]: 1.39 min | LC retention time [2]: 1.69 min

NC(CCC(=O)O)C(=O)O (centres undefined) [glutamic acid]
LC retention time [1]: 0.577 min | LC retention time [2]: 0.475 min

CC(CCC(=O)NCC(=O)O)C1CCC2C3C(O)CC4CC(O)CCC4(C)C3CCC12C (centres undefined) [glycochenodeoxycholic acid]
LC retention time [1]: 3.46 min | LC retention time [2]: 4.23 min

CC(CCC(=O)NCC(=O)O)C1CCC2C3CCC4CC(O)CCC4(C)C3CC(O)C12C (centres undefined) [glycodeoxycholic acid]
LC retention time [1]: 3.46 min | LC retention time [2]: 4.44 min

CC(CCC(=O)NCC(=O)O)C1CCC2C3CCC4CC(O)CCC4(C)C3CCC12C (centres undefined) [glycolithocholic acid]
LC retention time [1]: 3.56 min | LC retention time [2]: 4.61 min

Nc1nc2c(ncn2C2OC(CO)C(O)C2O)c(=O)[nH]1 (centres undefined) [guanosine]
LC retention time [1]: 1.26 min | LC retention time [2]: 1.18 min

CC12CCC(=O)C=C1CCC1C2C(O)CC2(C)C1CCC2(O)C(=O)CO (centres undefined) [hydrocortisone, cortisol]
LC retention time [1]: 2.63 min | LC retention time [2]: 3.87 min

NCCS(=O)O [hypotaurine]
LC retention time [1]: 0.576 min | LC retention time [2]: 0.468 min

O=c1[nH]cnc2nc[nH]c12 [hypoxanthine]
LC retention time [1]: 0.882 min | LC retention time [2]: 0.706 min

OCC1OC(Oc2c[nH]c3ccccc23)C(O)C(O)C1O (stereo not drawn) [indoxyl beta-d-glucoside]
LC retention time [1]: 1.7 min | LC retention time [2]: 2.92 min

O=C(O)C1OC(Oc2c[nH]c3ccccc23)C(O)C(O)C1O (stereo not drawn) [indoxyl beta-d-glucuronide cyclohexylammonium salt]
LC retention time [1]: 1.7 min | LC retention time [2]: 2.95 min

O=c1c(O)c(-c2ccc(O)cc2)oc2cc(O)cc(O)c12 [kaempferol]
LC retention time [1]: 2.76 min | LC retention time [2]: 3.88 min

NC(CS)C(=O)O (stereo not drawn) [l-cysteine]
LC retention time [1]: 0.603 min | LC retention time [2]: 0.491 min

NC(CSSCC(N)C(=O)O)C(=O)O (stereo not drawn) [l-cystine]
LC retention time [1]: 0.546 min | LC retention time [2]: 0.447 min

NCCCCC(N)C(=O)O (stereo not drawn) [l-lysine]
LC retention time [1]: 0.51 min | LC retention time [2]: 0.404 min

NCCCC(N)C(=O)O (stereo not drawn) [l-ornithine monohydrochloride]
LC retention time [1]: 0.517 min | LC retention time [2]: 0.415 min

CCCCCCCCCCCC(=O)OC(CC(=O)[O-])C[N+](C)(C)C (stereo not drawn) [lauroyl l-carnitine]
LC retention time [1]: 3.38 min | LC retention time [2]: 4.2 min

CC(=O)CCC(=O)O [levulinic acid]
LC retention time [1]: 1.39 min | LC retention time [2]: 1.46 min

CCCCCCCCCCCCCCCC(=O)OCC(O)COP(=O)([O-])OCC[N+](C)(C)C (centres undefined) [lysoPC(16:0/0:0)]
LC retention time [1]: 4.4 min | LC retention time [2]: 4.7 min

CCCCCCCCC=CCCCCCCCC(=O)OCC(O)COP(=O)([O-])OCC[N+](C)(C)C (centres undefined) [lysoPC(18:1(9Z)/0:0)]
LC retention time [1]: 4.5 min | LC retention time [2]: 4.72 min

OC1C(O)C(O)C(O)C(O)C1O (centres undefined) [myo-inositol]
LC retention time [1]: 0.571 min | LC retention time [2]: 0.465 min

CC(=O)NC(CC(=O)O)C(=O)NC(CCC(=O)O)C(=O)O (centres undefined) [n-acetyl-asp-glu]
LC retention time [1]: 1.28 min | LC retention time [2]: 0.863 min

CC(=O)NC(Cc1ccc(O)cc1)C(=O)O (stereo not drawn) [n-acetyl-l-tyrosine]
LC retention time [1]: 1.53 min | LC retention time [2]: 2.68 min

CCCCCCCCCCCC(=O)N(C)CC(=O)O [n-lauroylsarcosine]
LC retention time [1]: 4.27 min | LC retention time [2]: 4.6 min

NC(=O)c1cccnc1 [nicotinamide]
LC retention time [1]: 0.969 min | LC retention time [2]: 0.722 min

O=C([O-])c1cc(=O)[nH]c(=O)[nH]1 [orotic acid]
LC retention time [1]: 0.719 min | LC retention time [2]: 0.588 min

Nc1ccc(C(=O)NCC(=O)O)cc1 [p-aminohippuric acid]
LC retention time [1]: 1.29 min | LC retention time [2]: 1.2 min

Nc1ccc(C(=O)O)cc1 [paba]
LC retention time [1]: 1.5 min | LC retention time [2]: 2.09 min

O=C1CCC(C(=O)N2CCCC2C(=O)O)N1 (centres undefined) [pglu-pro]
LC retention time [1]: 1.43 min | LC retention time [2]: 2.02 min

O=C(O)C(O)Cc1ccccc1 (centres undefined) [phenyllactic acid]
LC retention time [1]: 2.08 min | LC retention time [2]: 3.49 min

NC(CCCCn1c(C=O)ccc1CO)C(=O)O (centres undefined) [pyrraline]
LC retention time [1]: 1.43 min | LC retention time [2]: 2.31 min

O=C(O)c1ccc2ccccc2n1 [quinaldic acid]
LC retention time [1]: 1.68 min | LC retention time [2]: 2.86 min

CNCC(=O)O [sarcosine]
LC retention time [1]: 0.574 min | LC retention time [2]: 0.468 min

OCC1OC(OC2(CO)OC(CO)C(O)C2O)C(O)C(O)C1O (centres undefined) [sucrose]
LC retention time [1]: 0.661 min | LC retention time [2]: 0.504 min

CC(CCC(=O)NCCS(=O)(=O)O)C1CCC2C3CCC4CC(O)CCC4(C)C3CC(O)C12C (centres undefined) [taurodeoxycholic acid]
LC retention time [1]: 3.33 min | LC retention time [2]: 4.46 min

Cn1cnc2c1c(=O)[nH]c(=O)n2C [theobromine]
LC retention time [1]: 1.37 min | LC retention time [2]: 2.14 min

O=C(O)C1CC(O)CN1 (stereo not drawn) [trans-4-hydroxy-l-proline]
LC retention time [1]: 0.577 min | LC retention time [2]: 0.479 min

NCCc1c[nH]c2ccccc12 [tryptamine hydrochloride]
LC retention time [1]: 1.53 min | LC retention time [2]: 2.65 min

COc1cc(C=O)ccc1O [vanillin]
LC retention time [1]: 2.03 min | LC retention time [2]: 3.45 min
